The values below come from patent publication US20080312317A1 (Eisai R&D Management Co., Ltd., priority 2007, published 2008).

Holding throughout (format): cell-based
In assay [1] the test system is MDA-MB435 human breast cancer cell. As to the kind of experiment: Proliferation inhibitory effect, Cell Titer-Glo viability assay, MDA-MB435. The note with it: MDA-MB-435, 72 h, 3 days culture with compound, luciferase viability readout, read-out: IC50, concentration for 50% inhibition of cell growth. The procedure: (§1) WiDr human colon cancer cells cultured in RPMI1640 medium containing 10% fetal bovine serum, penicillin (100 unit/ml) and streptomycin (100 μg/ml) (SIGMA product) were seeded into a 96-well plate by 2×10^3 cells/90 μl/well. After culturing the cells overnight in a CO2 incubator, 10 μl of the compound (P15) which is diluted in series in 3-folds was added in each well above, and cultured for another 3 days. Then, 50 μl of Cell Titer-Glo Luminescent Cell Viability Assay (Promega product) was added thereto, cells were shaken for 2 minutes and allowed to stand for 15 minutes to allow reaction. After completing the reaction, luciferase activity was measured using the luminometer. The thus obtained measurement value was given as an index for the number of living cells in each well.
(§2) The same experiment as above was carried out, except that WiDr human colon cancer cell was changed to U937 human leukemia cell, KP4 human pancreatic cancer cell, MIApaca2 human pancreatic cancer cell, MDA-MB231 human breast cancer cell, MDA-MB435 human breast cancer cell, DU145 human prostate cancer cell, PC9 human lung cancer cell and OVCAR3 human ovarian cancer, respectively. The concentration (IC50 values) of the compound (P15) required for 50% inhibition of each cancer cell was determined. […]

Assay [2] concerns WiDr human colon cancer cell. As to the kind of experiment: Proliferation inhibitory effect, Cell Titer-Glo viability assay, WiDr. The note with it: 72 h, 3 days culture with compound, luciferase viability readout, read-out: IC50, concentration for 50% inhibition of cell growth. The protocol:
as §1
The same experiment as in Test Example 1 was carried out, except that the compound (P15) was changed to the compound (P16). The concentration (IC50 value) of the compound (P16) required for 50% inhibition of WiDr human colon cancer cell growth was determined.

Assay [3] deals with MDA-MB231 human breast cancer cell. As to the kind of experiment: Proliferation inhibitory effect, Cell Titer-Glo viability assay, MDA-MB231. The note with it: MDA-MB-231, 72 h, 3 days culture with compound, luciferase viability readout, read-out: IC50, concentration for 50% inhibition of cell growth. The procedure: as §1, §2
For assay [4], the system named is OVCAR3 human ovarian cancer. Description: Proliferation inhibitory effect, Cell Titer-Glo viability assay, OVCAR3. To be noted: OVCAR-3, 72 h, 3 days culture with compound, luciferase viability readout, read-out: IC50, concentration for 50% inhibition of cell growth. The protocol:
as §1, §2

Assay [5] concerns U937 human leukemia cell. As to the kind of experiment: Proliferation inhibitory effect, Cell Titer-Glo viability assay, U937. The note with it: U-937, 72 h, 3 days culture with compound, luciferase viability readout, read-out: IC50, concentration for 50% inhibition of cell growth. The procedure: as §1, §2
The test system of assay [6] is PC9 human lung cancer cell. Description: Proliferation inhibitory effect, Cell Titer-Glo viability assay, PC9. The note with it: 72 h, 3 days culture with compound, luciferase viability readout, read-out: IC50, concentration for 50% inhibition of cell growth. The procedure:
as §1, §2

Assay [7] concerns KP4 human pancreatic cancer cell. As to the kind of experiment: Proliferation inhibitory effect, Cell Titer-Glo viability assay, KP4. To be noted: 72 h, 3 days culture with compound, luciferase viability readout, read-out: IC50, concentration for 50% inhibition of cell growth. The protocol:
as §1, §2

The test system of assay [8] is MIApaca2 human pancreatic cancer cell. As to the kind of experiment: Proliferation inhibitory effect, Cell Titer-Glo viability assay, MIApaca2. To be noted: MIA PaCa-2, 72 h, 3 days culture with compound, luciferase viability readout, read-out: IC50, concentration for 50% inhibition of cell growth. The procedure: as §1, §2
In assay [9] the test system is DU145 human prostate cancer cell. Description: Proliferation inhibitory effect, Cell Titer-Glo viability assay, DU145. The note with it: DU-145, 72 h, 3 days culture with compound, luciferase viability readout, read-out: IC50, concentration for 50% inhibition of cell growth. The procedure: as §1, §2

Take `CC[C@H](O)[C@@H](C)[C@H]1O[C@@H]1C[C@@](C)(O)/C=C/C=C(\C)[C@H]1NC(=O)CCCCCC(OC(C)=O)/C=C/[C@@H]1C` (stereo partly drawn) [Compound P15, (2S,3S,4E)-2-((1E,3E,5R)-5-hydroxy-6-{(2R,3R)-3-[(1R,2S)-2-hydroxy-1-methylbutyl]oxiran-2-yl}-1,5-dimethylhexa-1,3-dien-1-yl)-3-methyl-12-oxoazacyclododec-4-en-6-yl acetate]: the IC50 in assay [1] worked out at 1700 nM; in [2] it was 570 nM; in assay [3] it was 470 nM; in assay [4] it was 430 nM; in assay [5], 550 nM; in [6], 1400 nM. The IC50 is 1300 nM in [7], 500 nM in assay [8] and 2300 nM in assay [9].

As for `CC[C@H](O)[C@@H](C)[C@H]1O[C@@H]1C[C@H](C)/C=C/C=C(\C)[C@H]1NC(=O)CCCCCC(OC(C)=O)/C=C/[C@@H]1C` (stereo partly drawn) [Compound P16], the IC50 in [1] stood at 380 nM; in [2], 290 nM; in [3] it was 130 nM; in assay [4] it was 97 nM; in [5] it was 140 nM; in assay [6], 240 nM. Moreover, the IC50 came out at 300 nM in assay [7], 140 nM in assay [8] and 510 nM in assay [9].
